Measured values from patent publication US12414565B2, “Pyridazine (THIO)amides as fungicidal compounds” (Bayer Aktiengesellschaft, priority 2018, dated 2025).

Experiments:
Alternaria brassicae = test: In vivo preventive test on Alternaria brassicae (leaf spot on radish or cabbage); conditions: 144 h, 500 ppm of active ingredient, preventive spray on radish or cabbage, evaluated 6 days after inoculation, 100% = no disease, read-out: efficacy
Procedure: (§1) The active ingredients were made soluble and homogenized in a mixture of Dimethyl sulfoxide/Acetone/Tween® 80 and then diluted in water to the desired concentration.
The young plants of radish or cabbage were treated by spraying the active ingredient prepared as described above. Control plants were treated only with an aqueous solution of Acetone/Dimethyl sulfoxide/Tween® 80.
After 24 hours, the plants were contaminated by spraying the leaves with an aqueous suspension of Alternaria brassicae spores. The contaminated radish or cabbage plants were incubated for 6 days at 20° C. and at 100% relative humidity.
The test was evaluated 6 days after the inoculation. 0% means an efficacy which corresponds to that of the control plants while an efficacy of 100% means that no disease was observed.

Alternaria alternata = Alternaria alternata in vitro cell test; assay type: cell-based; conditions: 120 h, 20 ppm of active ingredient, liquid culture, 5 days incubation, absorbance, read-out: efficacy (inhibition of fungal growth)
Procedure: (§2) [table] Fungicides were solubilized in DMSO and the solution used to prepare the required range of concentrations. The final concentration of DMSO used in the assay was <1%. A spore suspension of A. alternata was prepared and diluted to the desired spore density. Fungicides were evaluated for their ability to inhibit spore germination and mycelium growth in liquid culture assay. The compounds were added in the desired concentration to the culture medium with spores. After 5 days incubation, fungi-toxicity of compounds was determined by spectrometric measurement of mycelium growth. Inhibition of fungal growth was determined by comparing the absorbance values in wells containing the fungicides with the absorbance in control wells without fungicides.

Pyrenophora teres = test: In vivo preventive test on Pyrenophora teres (net blotch on barley); conditions: 240 h, 500 ppm of active ingredient, preventive spray on barley, evaluated 10 days after inoculation, 100% = no disease, read-out: efficacy
Procedure: as §1
The young plants of barley were treated by spraying the active ingredient prepared as described above. Control plants were treated only with an aqueous solution of Acetone/Dimethyl sulfoxide/Tween® 80.
After 24 hours, the plants were contaminated by spraying the leaves with an aqueous suspension of Pyrenophora teres spores. The contaminated barley plants were incubated for 48 hours at 20° C. and at 100% relative humidity and then for 8 days at 20° C. and at 70-80% relative humidity.
The test was evaluated 10 days after the inoculation. 0% means an efficacy which corresponds to that of the control plants while an efficacy of 100% means that no disease was observed.

Septoria tritici = Septoria tritici in vitro cell test; assay type: cell-based; conditions: Zymoseptoria tritici, 168 h; 20 ppm of active ingredient; liquid culture, 7 days incubation, absorbance; read-out: efficacy (inhibition of fungal growth)
Procedure: as §2, with “≤1%.” for “<1%.”, “S. tritici” for “A. alternata”, “7” for “5”

Sphaerotheca fuliginea = test: In vivo preventive test on Sphaerotheca fuliginea (powdery mildew on cucurbits); conditions: Podosphaera fuliginea, 192 h; 500 ppm of active ingredient; preventive spray on gherkin; evaluated 8 days after inoculation; 100% = no disease; read-out: efficacy
Procedure: as §1
The young plants of gherkin were treated by spraying the active ingredient prepared as described above. Control plants were treated only with an aqueous solution of Acetone/Dimethyl sulfoxide/Tween® 80.
After 24 hours, the plants were contaminated by spraying the leaves with an aqueous suspension of Sphaerotheca fuliginea spores. The contaminated gherkin plants were incubated for 8 days at 20° C. and at 70-80% relative humidity.
The test was evaluated 8 days after the inoculation. 0% means an efficacy which corresponds to that of the control plants while an efficacy of 100% means that no disease was observed.

Botrytis cinerea = test: In vivo preventive test on Botrytis cinerea (grey mould); conditions: 500 ppm of active ingredient, preventive spray on gherkin or cabbage, evaluated 4 to 5 days after inoculation, 100% = no disease, read-out: efficacy
Procedure: as §1
The young plants of gherkin or cabbage were treated by spraying the active ingredient prepared as described above. Control plants were treated only with an aqueous solution of Acetone/Dimethyl sulfoxide/Tween® 80.
After 24 hours, the plants were contaminated by spraying the leaves with an aqueous suspension of Botrytis cinerea spores. The contaminated gherkin plants were incubated for 4 to 5 days at 17° C. and at 90% relative humidity. The contaminated cabbage plants were incubated for 4 to 5 days at 20° C. and at 100% relative humidity.
The test was evaluated 4 to 5 days after the inoculation. 0% means an efficacy which corresponds to that of the control plants while an efficacy of 100% means that no disease was observed.

[1] = system: Colletotrichum lindemuthianum; test: Colletotrichum lindemuthianum in vitro cell test; assay type: cell-based; conditions: 144 h, 20 ppm of active ingredient, liquid culture, 6 days incubation, absorbance, read-out: efficacy (inhibition of fungal growth)
Procedure: as §2, with “was ≤1%.” for “was <1%.”, “of C. lindemuthianum” for “of A. alternata”, “inhibit spores” for “inhibit spore”, “After 6” for “After 5”

With `COCCc1c(Cl)nnc(Oc2cccc(C(F)(F)F)c2)c1C(=O)NCC(F)(F)c1ccc(Br)cc1Cl` [I-070, N-[2-(4-bromo-2-chloro-phenyl)-2,2-difluoro-ethyl]-6-chloro-5-(2-methoxyethyl)-3-[3-(trifluoromethyl)phenoxy]pyridazine-4-carboxamide] the pest or weed control at 500 ppm (Alternaria brassicae) was 90 to 100%, the inhibition at 20 ppm (Alternaria alternata) was 90 to 100% and the pest or weed control at 500 ppm (Pyrenophora teres) was 90 to 100%. It also gave an inhibition at 20 ppm (Septoria tritici) of 90 to 100%, a pest or weed control at 500 ppm (Sphaerotheca fuliginea) of 90 to 100% and a pest or weed control at 500 ppm (Botrytis cinerea) of 90 to 100%. It also gave an inhibition at 20 ppm [1] of 90 to 100%.

`Cc1ccc(C(F)(F)CNC(=O)c2c(Oc3cccc(Cl)c3)nnc(Cl)c2C)c(C)c1` [I-790, 6-chloro-3-(3-chlorophenoxy)-N-[2-(2,4-dimethylphenyl)-2,2-difluoro-ethyl]-5-methyl-pyridazine-4-carboxamide] gave a pest or weed control at 500 ppm (Alternaria brassicae) of 90 to 100%, an inhibition at 20 ppm (Alternaria alternata) of 90 to 100% and an inhibition at 20 ppm (Septoria tritici) of 70 to 79%. For the same molecule, the pest or weed control at 500 ppm (Sphaerotheca fuliginea) was 90 to 100%, the pest or weed control at 500 ppm (Botrytis cinerea) was 90 to 100% and the inhibition at 20 ppm [1] was 90 to 100%.

`Cc1ccc(C(F)(F)CNC(=O)c2c(Oc3cccc(C(F)(F)F)c3)nnc(Cl)c2-c2cccnc2)c(C)c1` [I-550, 6-chloro-N-[2-(2,4-dimethylphenyl)-2,2-difluoro-ethyl]-5-(3-pyridyl)-3-[3-(trifluoromethyl)phenoxy]pyridazine-4-carboxamide] gave a pest or weed control at 500 ppm (Alternaria brassicae) of 90 to 100%, an inhibition at 20 ppm (Alternaria alternata) of 90 to 100% and an inhibition at 20 ppm (Septoria tritici) of 90 to 100%. The pest or weed control at 500 ppm (Sphaerotheca fuliginea) was 90 to 100%, the pest or weed control at 500 ppm (Botrytis cinerea) was 90 to 100% and the inhibition at 20 ppm [1] was 90 to 100%.
